The text below walks through data of patent publication US9765061B2, “Trail enhancers for the selective killing of cancer cells” (The Scripps Research Institute, priority 2013, dated 2017).

The test system of one assay is cancer and normal cells. Put plainly: XTT-based viability of cancer and normal cells grown 18 h (FIG. 12). It counts as cell-based. The note with it: TRAIL alone or the same doses of C12 without TRAIL. The method, then:
FIG. 12. (C12) promotes the TRAIL-mediated killing of cancer cells, a), c) Western blot analysis of PARP cleavage in cancer or normal cells treated for 3 h with TRAIL, (C12) or a combination of both, as indicated, b), d) XTT-based assay monitoring the viability of cancer and normal cells grown for 18 h in media containing TRAIL and the indicated doses of (C12). Cell survival was ˜100% in control samples (untreated cells) as well as in samples incubated with TRAIL alone or the same doses of (C12) without TRAIL.
Cancer and normal cell culture. Lung cancer cell line A549 and colon cancer cell line HT29 were purchased from ATCC. Breast cancer cell line MDA-MB-468 was received from J. C. Reed (The Burnham Institute, La Jolla, Calif.). […]
Cytotoxicity was determined by using the XTT-based toxicology assay kit (Sigma, St. Louis, Miss.) in accordance with the manufacturer's instructions. For some experiments, to confirm the apoptotic nature of toxicity, cells were analyzed using protocols and instructions of the Annexin V-FITC apoptosis detection kit (Biovision, Mountain View, Calif.). In addition, caspase 3, 8 and 9 activities were determined by colorimetric assays (R&D System), and the data are expressed as fold increases compared to the values of untreated or control-treated cells (n=5).
(Formazan colour is commonly taken as a measure of viable cells.)

The test system of a further assay is sXBP1 (UPR). Put plainly: RT-PCR assay of spliced XBP1 mRNA (sXBP1) in macrophages. Format: cell-based, mouse. The following applies: FIG. 1D and 1E. The source says: FIG. 1: C12 induces the UPR in mammalian cells. (A and B). Comparison of the macrophage responsiveness to P. aeruginosa (P.a.), S. typhimurium (S.t), and S. aureus (S.a.). RT-PCR assay of XBP1 (A) and Western blot analysis (B) of p38, its phosphorylated form (p-p38) as well as phosphorylated forms of PERK (p-PERK) and eIF2α (p-eIF2α) in cell extracts after treatment with bacteria are shown. (C) Macrophages were stimulated with P. aeruginosa wild type (wt) or lasI mutant (ΔlasI), and cell extracts (total RNA or total protein) were prepared and analyzed as in (A and B). […] (F) Total RNA was prepared from lung of mice after inoculation of vehicle (-) or (C12) and analyzed in (D). […]
Among key biochemical signatures of the multicomponent ER stress pathway, known as the unfolded protein response (UPR), are the phosphorylation of the α-subunit of eukaryotic translation initiation factor-2 (eIF2α) and activation of the transcription factor XBP1/Hac1 (X-box binding protein-1 in metazoans and homologous to ATF/CREB in yeast, respectively) ^11. […] To initiate our studies, we exposed bone marrow-derived macrophages (BMDM) to these bacteria, and macrophage responsiveness was analyzed for biochemical markers of the UPR and the phosphorylation of the mitogen-activated protein kinase p38, as a common marker of TLR pathways. […]

Molecules are shown by their SMILES.

For `CCCCCCCCCC(=O)CC(=O)N[C@H]1CCOC1=O` [Compound 1, N-(3-oxo-dodecanoyl) homoserine lactone], the Cell survival with cancer and normal cells is around 100%. Further, the “induction of sXBP1 / activation of the UPR” value in the assay with sXBP1 (UPR) was “time- and dose-dependent induction of sXBP1”.
